Laboratory results reported in US20140137294A1, “GLUCOSINOLATE TRANSPORTER PROTEIN AND USES THEREOF” (UNIVERSITY OF COPENHAGEN, priority 2010, published 2014).

What was measured:
AtGTR2 [1] = target: T1, AtGTR2 (Arabidopsis thaliana, UniProt Q9LV10); assay: Substrate-induced currents in voltage-clamped Xenopus oocytes expressing AtGTR2; type: cell-based
T1 construct: expressed in transfected cells; host or cells: Xenopus oocytes injected with in vitro transcribed cRNA (vector pNB1u)
T1 sequence (Q9LV10 1-616): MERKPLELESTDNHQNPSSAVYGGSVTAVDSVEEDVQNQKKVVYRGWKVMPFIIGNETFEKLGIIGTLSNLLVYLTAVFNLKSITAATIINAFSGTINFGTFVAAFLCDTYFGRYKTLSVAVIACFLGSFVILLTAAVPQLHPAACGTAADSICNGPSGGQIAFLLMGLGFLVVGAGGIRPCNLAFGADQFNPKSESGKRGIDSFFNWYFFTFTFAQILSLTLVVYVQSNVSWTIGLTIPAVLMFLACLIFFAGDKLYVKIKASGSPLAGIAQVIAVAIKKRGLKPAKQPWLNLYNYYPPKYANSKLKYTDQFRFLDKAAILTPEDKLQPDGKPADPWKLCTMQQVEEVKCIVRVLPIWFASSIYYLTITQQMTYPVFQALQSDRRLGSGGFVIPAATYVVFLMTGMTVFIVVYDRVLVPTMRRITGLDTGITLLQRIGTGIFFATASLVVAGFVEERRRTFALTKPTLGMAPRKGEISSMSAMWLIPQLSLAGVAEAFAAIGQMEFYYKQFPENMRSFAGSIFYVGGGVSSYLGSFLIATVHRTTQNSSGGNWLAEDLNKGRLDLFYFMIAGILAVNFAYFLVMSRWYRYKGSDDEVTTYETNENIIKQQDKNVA
Description: FIG. 3: Biochemical analysis of AtGTR1 and 2 mediated GSL transport in Xenopus oocytes. A and B, pH dependence of AtGTR-mediated GSL transport. A, AtGTR2 mediated 4-MTB uptake measured by LC-MS analysis of oocyte extracts, n=3 oocytes. B, AtGTR1 currents induced by 1 mM 4-MTB were measured at different membrane potentials at pH 5 ([…]), pH 6 (♦), and pH 7 (▴). Currents were normalized to the current induced at pH 5 at −60 mV, error bars are SD, n=4 oocytes. C and D, kinetic analysis of AtGTR-mediated glucosinolate transport. Normalized glucosinolate dependent currents at a membrane potential of −60 mV are plotted against 4-MTB concentrations, line indicates a fit of the Michaelis-Menten equation to the data; error bars are SD. For AtGTR1 (n=6 oocytes); For AtGTR2 (n=5 oocytes). Each oocyte-dataset were normalized to current elicited at 100 μM 4-MTB. E and F, substrate specificity of AtGTRs. E, AtGTR1 and AtGTR2 uptake of 0.04 mM C-14 labeled pOHBG at pH 5 in the presence of 2 mM 4-MTB, 2 mM NO3^−, 2 mM glucose+2 mM SO4^−−, or a solution of 2 mM Ala-His+2 mM Asp-Ala+2 mM Gly-Leu+2 mM Ala-Phe+2 mM Gly-Glu+2 mM Gly-Gly-Gly, error bars are SD, n=8 oocytes. F, AtGTR1 currents induced by endogenous and exogenous glucosinolates, representative positive, negative and neutral dipeptides and two tripeptides Currents were normalized to the current induced by 100 μM 4-MTB at pH 5 clamped at −60 mV, error bars are SD, n=4 oocytes.
When current recordings were performed on oocytes expressing, respectively, AtGTR1 and AtGTR2 exposed to 100 μM 4-MTB at pH 5 and voltage clamped at −50 mV elicited inward currents in the 30 nA range. This indicates a net influx of positive ions through the AtGTRs upon exposure to GSLs. GSL-induced inward currents were voltage dependent increasing with hyperpolarizing membrane potential within the range of +30 to −120 mV (FIGS. 3B and F). […] This observation was also noticeable in substrate dependent transport rates measured by direct LC-MS detection of GSL uptake.

AtGTR2 [2] = target: T1, AtGTR2; assay: Uptake of C14-labeled pOHBG in AtGTR2 expressing oocytes in presence of excess competitor; type: cell-based; settings: 50× excess unlabeled competitor, AtGTR2, pH 5
Description: FIG. 3: Biochemical analysis of AtGTR1 and 2 mediated GSL transport in Xenopus oocytes. A and B, pH dependence of AtGTR-mediated GSL transport. A, AtGTR2 mediated 4-MTB uptake measured by LC-MS analysis of oocyte extracts, n=3 oocytes. B, AtGTR1 currents induced by 1 mM 4-MTB were measured at different membrane potentials at pH 5 ([…]), pH 6 (♦), and pH 7 (▴). Currents were normalized to the current induced at pH 5 at −60 mV, error bars are SD, n=4 oocytes. C and D, kinetic analysis of AtGTR-mediated glucosinolate transport. […]
The substrate specificity investigations were extended to include substrates previously identified for the NRT/PTR transporter family namely di- and tripeptides and nitrate. […] However, perfusing with 1 mM NO3^− did result in currents but these amounted only to 1/10th of currents measured when perfusing with 100 μM 4-MTB (FIG. 3F). […]
For assays with radiolabeled substrates, single oocytes were ruptured in 100 μl 10% SDS in 4 ml scintillation vials by shaking for 20-30 minutes. 2.5 ml EcoScint™ scintillation fluid (National Diagnostics) was added, and imported compounds quantified by scintillation counting. For assays with unlabeled substrates, oocyte extracts were analysed by LC-MS. Oocytes were analyzed in batches of 5 oocytes per repetition. […]

CSCCCC/C(=N/OS(=O)(=O)O)S[C@@H]1O[C@H](CO)[C@@H](O)[C@H](O)[C@H]1O [4-MTB, 4-methylthiobutyl glucosinolate]
inward current (AtGTR2 [1]; 100 μM substrate, pH 5, voltage clamped at −50 mV, AtGTR2): ~30 nA | substrate dependent transport rate at 500 μM, lower than at 250 μM and 1 mM (AtGTR2 [1]; AtGTR2, 500 μM 4-MTB): 25% | Km (AtGTR2 [1]; pH 5, clamped at −60 mV, Michaelis-Menten, AtGTR2): 18.7 ± 4.2 µM | effect on uptake of 40 μM C14-labeled pOHBG (AtGTR2 [2]): reduced the uptake of pOHBG to background levels
